In data set [1] the target is 2YF/3wt + NRG Ba/F3 cells (HER2YF/HER3wt) (Homo sapiens, UniProt P04626, Y1005F/Y1023F/Y1112F/Y1127F/Y1139F/Y1196F/Y1221F/Y1222F/Y1248F, cells depend on it). As to the kind of experiment: Ba/F3 proliferation assay, 2YF/3wt + NRG. Format: cell-based. The method in brief: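 Ba/F3 cells stably expressing HER3 and HER2 with 9 C-terminal Tyr→Phe mutations, selected for NRG dependence after IL-3 withdrawal. Cells were given DMSO or compound plus NRG (50 ng/mL final); proliferation normalized to DMSO, fit by log(inhibitor) vs response with variable slope.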
Sequence of 2YF/3wt + NRG Ba/F3 cells (HER2YF/HER3wt) (P04626 whole entry Y1005F/Y1023F/Y1112F/Y1127F/Y1139F/Y1196F/Y1221F/Y1222F/Y1248F): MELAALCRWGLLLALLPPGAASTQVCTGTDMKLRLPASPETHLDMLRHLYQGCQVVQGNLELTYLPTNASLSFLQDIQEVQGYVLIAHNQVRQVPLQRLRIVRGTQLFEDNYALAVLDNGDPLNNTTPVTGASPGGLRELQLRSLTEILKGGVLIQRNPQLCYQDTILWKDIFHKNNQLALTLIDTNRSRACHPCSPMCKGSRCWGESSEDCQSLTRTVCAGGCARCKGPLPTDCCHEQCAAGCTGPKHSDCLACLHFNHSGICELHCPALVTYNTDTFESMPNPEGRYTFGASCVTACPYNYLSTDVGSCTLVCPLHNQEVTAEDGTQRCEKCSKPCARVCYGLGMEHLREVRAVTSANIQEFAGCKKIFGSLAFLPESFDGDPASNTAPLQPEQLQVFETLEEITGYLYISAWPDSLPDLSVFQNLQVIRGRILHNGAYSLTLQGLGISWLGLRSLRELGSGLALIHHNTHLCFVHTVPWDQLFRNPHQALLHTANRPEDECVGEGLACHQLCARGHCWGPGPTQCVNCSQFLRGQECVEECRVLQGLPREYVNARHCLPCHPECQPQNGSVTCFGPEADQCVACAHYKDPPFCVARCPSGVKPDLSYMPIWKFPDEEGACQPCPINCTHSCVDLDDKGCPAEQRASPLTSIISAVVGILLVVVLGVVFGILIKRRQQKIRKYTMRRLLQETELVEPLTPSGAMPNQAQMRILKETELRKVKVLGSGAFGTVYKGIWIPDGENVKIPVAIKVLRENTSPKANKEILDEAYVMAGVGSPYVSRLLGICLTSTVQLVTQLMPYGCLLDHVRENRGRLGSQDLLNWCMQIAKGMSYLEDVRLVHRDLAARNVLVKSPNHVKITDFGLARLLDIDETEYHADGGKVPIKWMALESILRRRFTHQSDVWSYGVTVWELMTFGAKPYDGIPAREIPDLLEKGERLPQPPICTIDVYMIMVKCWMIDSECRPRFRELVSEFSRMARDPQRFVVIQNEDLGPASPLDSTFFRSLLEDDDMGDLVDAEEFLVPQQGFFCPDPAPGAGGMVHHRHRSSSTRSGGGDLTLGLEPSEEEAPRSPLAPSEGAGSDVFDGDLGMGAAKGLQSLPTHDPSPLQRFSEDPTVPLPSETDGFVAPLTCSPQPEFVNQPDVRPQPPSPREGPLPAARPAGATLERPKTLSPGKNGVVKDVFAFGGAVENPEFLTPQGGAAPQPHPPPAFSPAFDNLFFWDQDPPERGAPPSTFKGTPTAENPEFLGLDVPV

Data set [2] addresses T1, Axl+ Ba/F3 cells (Homo sapiens, UniProt P30530).
T1 sequence (P30530 1-894): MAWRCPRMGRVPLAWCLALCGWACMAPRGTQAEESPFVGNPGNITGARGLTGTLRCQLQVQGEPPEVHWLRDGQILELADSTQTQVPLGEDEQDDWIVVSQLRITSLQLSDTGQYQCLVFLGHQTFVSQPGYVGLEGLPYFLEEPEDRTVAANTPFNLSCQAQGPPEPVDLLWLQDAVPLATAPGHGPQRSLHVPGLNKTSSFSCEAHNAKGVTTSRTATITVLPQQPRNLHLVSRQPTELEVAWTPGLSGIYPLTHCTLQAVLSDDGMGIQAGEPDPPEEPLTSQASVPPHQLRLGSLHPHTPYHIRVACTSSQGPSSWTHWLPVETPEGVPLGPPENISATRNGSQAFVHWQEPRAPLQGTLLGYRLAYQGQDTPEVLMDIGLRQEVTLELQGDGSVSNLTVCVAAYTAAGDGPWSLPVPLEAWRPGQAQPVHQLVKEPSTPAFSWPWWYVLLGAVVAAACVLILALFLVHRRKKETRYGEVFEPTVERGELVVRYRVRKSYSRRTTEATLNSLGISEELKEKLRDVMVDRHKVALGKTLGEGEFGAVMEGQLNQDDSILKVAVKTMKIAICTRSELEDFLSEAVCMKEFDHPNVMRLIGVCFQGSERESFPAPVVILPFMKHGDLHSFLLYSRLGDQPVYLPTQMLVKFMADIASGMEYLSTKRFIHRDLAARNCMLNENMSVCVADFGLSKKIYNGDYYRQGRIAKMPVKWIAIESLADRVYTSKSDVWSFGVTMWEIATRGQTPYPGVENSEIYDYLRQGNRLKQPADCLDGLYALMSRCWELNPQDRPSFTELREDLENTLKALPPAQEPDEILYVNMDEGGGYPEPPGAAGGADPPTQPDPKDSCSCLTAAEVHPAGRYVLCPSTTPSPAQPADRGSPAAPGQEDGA
As to the kind of experiment: Ba/F3 proliferation assay, Axl+. Format: cell-based. The method in brief: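 Ba/F3 cells transduced with Axl and selected for IL-3-independent growth. Cells combined with drug dilutions, and with IL-3 (10 ng/mL) or NRG (6.25 ng/mL) where needed, for 48 h at 37 °C. CellTiter-Glo read, normalized to DMSO, fitted with variable-slope log(inhibitor) regression.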

Data set [3] has as its system parental Ba/F3 cells + IL-3. As to the kind of experiment: Ba/F3 proliferation assay, Parental + IL-3. To be noted: Mus musculus, BaF3; Tables 7 and 8; read-out: Ba/F3 line IC50, Parental + IL-3. It is filed as cell-based. The method in brief:
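Ba/F3 cells were combined with drug dilutions plus growth factor (10 ng/mL IL-3, or 6.25 ng/mL NRG where needed) and incubated 48 h at 37 °C. Viability read by CellTiter-Glo, normalized to DMSO. Log(inhibitor)-response fit with variable slope; biological triplicates.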

In data set [4] the test system is HER2+/2VE Ba/F3 line. As to the kind of experiment: Ba/F3 proliferation assay, HER2+/2VE. As to conditions: Mus musculus, BaF3; Tables 7 and 8. It is filed as cell-based. The method in brief:
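Ba/F3 cells combined with drug dilutions and growth factor as needed (10 ng/mL IL-3 or 6.25 ng/mL NRG), 48 h at 37° C. Proliferation by CellTiter-Glo, normalized to DMSO, fitted to log(inhibitor) vs response with variable slope; biological triplicates in technical triplicate.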

In data set [5] the test system is HCC827. As to the kind of experiment: HCC827 cell viability. As to conditions: Homo sapiens, compound at 1 nM, n in the line below, read-out: HCC827 (% viable at 1 nM). It is filed as cell-based.
Data set [6] concerns A431. As to the kind of experiment: A431 cell proliferation. It is filed as cell-based. As to conditions: Homo sapiens, A-431; Table 8; n in the line below.
The subject of data set [7] is NCI-H1975. As to the kind of experiment: NCI-H1975 cell proliferation. It is filed as cell-based. As to conditions: Homo sapiens, Table 8, n in the line below.
The nature of data set [8]: Mouse Liver Microsome stability assay. It is filed as in vitro ADME. To be noted: mouse liver microsomes.
Data set [9] concerns 2YF/3wt + IL-3 Ba/F3 cells. As to the kind of experiment: Ba/F3 proliferation assay, 2YF/3wt + IL-3. Format: cell-based. As to conditions: Mus musculus, BaF3; Table 4; ± S.D., n = 3; 48 h Cell Titer Glo. The procedure:
To validate the screen and test the effectiveness of counter-screening with either the same 2YF/3wt Ba/F3 cell line or the parental Ba/F3's in the presence of IL-3 to remove cytotoxic primary hits, we first tested a panel of kinase inhibitors with established mechanisms of action.
(§1) Proliferation Assays. For adherent cell lines, cells were plated onto opaque white 96 well plates (Greiner cat #655083) and allowed to adhere overnight. The following day media was changed to fresh media that contained either DMSO or the indicated concentration of drug plus NRG (50 ng/mL final concentration) as indicated. Plates were incubated at 37° C. for 72 h and proliferation was read out using Cell Titer Glo (Promega) according to the manufacturer's protocol. For Ba/F3 cell proliferation, cells, drug dilution, and any necessary growth factors (10 ng/mL IL-3 or 6.25 ng/mL NRG) were combined in a well of a 96 well plate. Plates were incubated at 37° C. for 48 h and proliferation was read out using Cell Titer Glo according to the manufacturer's protocol. For all normalized assays, proliferation was normalized to the DMSO control condition. All graphs were plotted in GraphPad Prism 6 and fit with a non-linear regression of the log(inhibitor) vs response with a variable slope where shown. All graphs are averages (+/−standard deviation) of biological triplicates each performed in technical triplicate unless otherwise noted. If only one biological replicate was performed standard deviations were derived from the technical replicates.

Data set [10] relates to HER2YF/HER3E928G (2YF/3EG) Ba/F3 cells. As to the kind of experiment: Ba/F3 proliferation assay, 2YF/3EG +/- NRG. It is filed as cell-based. To be noted: + NRG vs no NRG.
Text: Consistent with the results in the HER2 overexpressing cell lines, CW-2 cells that harbor a HER3-activating mutation were equally sensitive to compound 3+/−NRG in both proliferation and signaling assays (FIGS. 6A-6B). […] To further evaluate the potential of compound 3 against HER2 mutants within a HER2/HER3 heterodimer we transduced wt HER3 containing Ba/F3 cells with reported HER2 oncogenic mutants in the HER2YF construct.
For HER2YF/3EG Ba/F3 cells were selected according to the protocol for the HER2YF/3TM Ba/F3's with the exception that no NRG was supplemented in the media during IL-3 independent selection.
as §1

Setting [11] is: Tables 7 and 8, read-out: Ba/F3 line IC50, HER2YF/HER3 + NRG.
Setting [12] is: Tables 7 and 8, read-out: Ba/F3 line IC50, Axl+.

Where two headings read alike, the source gives them in different places.

Turning to `COc1ccc(-c2ccccc2)cc1Nc1ncnc2[nH]cc(-c3cc[nH]n3)c12` [8-089], the figures for the GI50 in [1] (setting [11]) and in [2] (setting [12]) were 20.8 nM and 1160 nM, respectively. Further, the IC50 was determined as 2440 nM in data set [3], 118 nM in data set [4], 914 ± 134 nM in [6] and 2250 ± 54 nM in data set [7]. Further, the viability at 0.001 µM in [5] worked out at 99.9 ± 14.6%.

Turning to `COc1ccc(-c2ccccn2)cc1Nc1ncnc2[nH]cc(-c3cc[nH]n3)c12` [8-090], the GI50 in data set [1] (setting [11]) was determined as 227 nM; in data set [2] (setting [12]), 1570 nM. In addition, the IC50 in [3] came out at 2250 nM; in data set [4], 895 nM; in data set [6] it was 911 nM; in data set [7], 2540 nM. Besides, the viability at 0.001 µM in data set [5] turned out to be 102%.

With `COc1ccc(-c2ccsc2)cc1Nc1ncnc2[nH]cc(-c3cc[nH]n3)c12` [8-091], the GI50 worked out at 9.25 nM in [1] (setting [11]) and 697 nM in [2] (setting [12]). Also, the IC50 turned out to be 2590 nM in [3], 120 nM in data set [4], 634 ± 188 nM in data set [6] and 1420 ± 117 nM in data set [7]. Also, in [5], the viability at 0.001 µM is 80.9 ± 24%.

As to `COc1ccc(-c2cccs2)cc1Nc1ncnc2[nH]cc(-c3cc[nH]n3)c12` [8-092], the GI50 in [1] (setting [11]) came to 20.5 nM; in data set [2] (setting [12]) it was 1200 nM. Moreover, the IC50 in [3] is greater than 3330 nM; in data set [4] it was 232 nM; in data set [6], 762 ± 215 nM; in data set [7], 1900 ± 134 nM. Besides, the viability at 0.001 µM in data set [5] turned out to be 81.6 ± 21.1%.

In the case of `COc1ccc(-c2ccccc2)cc1Nc1ncnc2[nH]cc(-c3ccn(C)n3)c12` [8-095], the values for the GI50 in [1] (setting [11]) and in data set [2] (setting [12]) were 5 nM and 1310 nM, respectively. The IC50 was greater than 3330 nM in data set [3], 46.7 nM in data set [4], 1120 ± 59 nM in [6] and 1740 ± 157 nM in data set [7]. Besides, the viability at 0.001 µM in data set [5] was determined as 49.2 ± 13.7%.

As for `COc1ccc(-c2ccccc2)cc1Nc1ncnc2[nH]nc(-c3cc[nH]n3)c12` [8-096], the GI50 in data set [1] (setting [11]) came out at 2 nM; in [2] (setting [12]), 501 nM. Moreover, the IC50 worked out at 1540 nM in data set [3], 31.4 nM in data set [4], 471 ± 63.4 nM in data set [6] and 891 ± 18.6 nM in data set [7]. In addition, the viability at 0.001 µM in data set [5] was determined as 30.6 ± 4.2%.

Take `COc1ccc(-c2ccccc2)cc1Nc1ncnc2[nH]nc(-c3ccn(C)n3)c12` [8-097]: the GI50 amounted to 1 nM in data set [1] (setting [11]) and 612 nM in data set [2] (setting [12]). Moreover, the IC50 in data set [3] turned out to be 1770 nM; in data set [4] it was 13.7 nM; in data set [6], 290 ± 71 nM; in [7] it was 507 ± 85.1 nM. Also, the viability at 0.001 µM in data set [5] was 29.5 ± 7.1%.

With `CN(C)c1ccc(-c2ccsc2)cc1Nc1ncnc2[nH]nc(-c3cc[nH]n3)c12` [104A], the GI50 in data set [1] (setting [11]) amounted to 1.5 nM; in data set [2] (setting [12]), 844 nM. Besides, the IC50 worked out at 1600 nM in data set [3], 48.5 nM in data set [4], 330 ± 125 nM in [6] and 720 ± 30 nM in data set [7]. The viability at 0.001 µM in data set [5] worked out at 29.8 ± 2.7%. Also, the “WuXi Microsomal stability (Mouse Extraction Ratio)” value in [8] is on record as 0.87.

Consider `CN(C)c1ccc(-c2ccsc2)cc1Nc1ncnc2[nH]nc(-c3ccn(C)n3)c12` [104B], for which the GI50 in data set [1] (setting [11]) came out at 1.5 nM; in data set [2] (setting [12]) it was 1560 nM. Besides, the IC50 in [3] was roughly 2000 nM; in data set [4], 46.4 nM; in data set [6] it was 343 ± 169 nM; in [7], 814 ± 59 nM. The viability at 0.001 µM in data set [5] was 25.2 ± 3.4%.

As to `CC(C)(O)CC(=O)NCCn1ccc2ncnc(Nc3ccc(Oc4cccc(C(F)(F)F)c4)c(Cl)c3)c21` [TAK-285, reference compound], the GI50 in data set [1] (Table 4, ± S.D., n = 3, 48 h Cell Titer Glo, read-out: IC50, 2YF/3wt + NRG) is 399 ± 111 nM; in data set [2] (Table 4, ± S.D., n = 3, 48 h Cell Titer Glo, read-out: IC50, Axl) it was greater than 3330 nM. Also, in data set [9], the IC50 is greater than 10000 nM. In data set [10], the “reduction of sensitivity on addition of NRG” value was 40 fold.

As for `COc1ccc(-c2ccoc2)cc1Nc1ncnc2[nH]cc(-c3cc[nH]n3)c12` [compound 178], the GI50 in [1] (setting [11]) stood at 6.8 nM; in data set [2] (setting [12]), 1170 nM. Moreover, the IC50 in data set [3] is 2540 nM; in data set [4] it was 70.3 nM. The “WuXi Microsomal stability (Mouse Extraction Ratio)” value in data set [8] is 0.948.

(Values after patent US20190119284A1, “ErbB Inhibitors and Uses Thereof” (The Regents of the University of California, priority 2016, published 2019).)
